These results are taken from patent US20040048900A1, “Nicotine and/or nicotine agonists for the treatment of general anesthetic effects and side effects” (priority 2002, published 2004).

Molecules are shown by their SMILES. Several values for one entry are separate records, joined by “and”; a condition that tells them apart may be missing. Equal values may be shown once. Entries after “also recorded” stand apart in the source; their conditions may differ.

The subject of test [1] is analgesic action of nicotine. Particulars: Bitner, 1998; cited from earlier work.
Test [2] relates to β2 nicotinic knockout male C57/B16 mice. Nature of the test: HPWL in β2 nicotinic knockout mice. To be noted: vs wild type controls; 0.28% isoflurane, p<0.001. The test is classed as in vivo. From the text:
The subunit composition of the nicotinic receptors responsible for the analgesic effects of nicotinic agonists is controversial. […] Nicotinic antagonists specific for α7 containing nicotinic achetylcholine receptors can be analgesic in some settings (Damaj, 2000). […] The importance of the nicotinic β2 subunit in male C57/B16 mice and their generation matched wild type controls have been tested (a gift from J. P. Changeux, Institute Pasteur).

In another test the test system is male and female mice. Nature of the test: HPWL by gender, estrus stage, castration, oophorectomy. The test is classed as in vivo. Particulars: isoflurane. As to the method: The ovary and oviduct was tied with a double 3.0 polysorb suture. The fascia was closed with 3.0 polysorb and the skin with 4.0 nylon. The procedure was repeated on the other side. The mouse was injected with buprenophine 1 mg/kg prior to emergence for pain control.
Estrogen can directly modulate nicotinic receptors at micromolar concentrations (Paradiso, 2001; Nakazawa, 2001; and Damaj, 2001). Estrogen receptors are co-localized with both nicotinic and muscarinic receptors (Hosli, 2001). Progesterone is inhibitory at nicotinic acetylcholine receptors (Paradiso, 2001; and Damaj, 2001). HPWL was tested at different phases of the female estrus cycle (FIG. 14). […] Oophorectomy (see methods) was performed on six week old female mice. After allowing two weeks for hormonal depletion, and surgical recovery HPWL was again tested.
Furthermore, testosterone was tested to see if it induced a state resistant to isoflurane hyperalgesia. Male mice were castrated and after two weeks for surgical recovery and hormone depletion, hyperalgesia in response to isoflurane was tested. […] In addition to the classical “female hormones”, female mice also have testosterone that is made by the ovary (Halling, 1989). […] Testosterone levels in females decrease after oophorectomy.

For test [3], the system named is ^3H-norepinephrine release from female mouse lumbar spinal cord slice. Nature of the test: 3H-norepinephrine release from superfused spinal cord slice. Particulars: isoflurane 0.38%.
Excerpt: Spinal Cord Slice Preparation: The spinal cord was dissected from the mouse. Under CO2 narcosis the mouse was decapitated. The spinal column was removed and placed into cold dissection solution where the spinal cord was removed with a dissection microscope. The lumbar section of the cord was isolated and imbedded in a 3% low melting point agar (Fisher Scientific) block made in dissection solution. Transverse 400 micrometer slices were made using a Vibratone VT1000S slicing apparatus (Leica, Whetzlar, Germany). Slicing was performed in ice cold Krebs solution bubbled with 5%CO2/95%O2.
The cord slices were incubated in a solution of 1 ml of Krebs solution and 10 ul of 1-[7,8-^3H] noradrenaline in a closed environment surrounded by Krebs solution bubbled with CO2/O2 for 30 minutes. The slices were transferred into a superfusion and stimulation chamber (Warner Instruments Inc.,) where Krebs solution was allowed to perfuse over them for 30 minutes at a rate of 0.5 ml/min. The superfusion chamber thermostatically temperature controlled at 37° C. The solutions were pumped to the chamber at a constant rate of 0.5 ml/min using a Kwik-Pump 290 (Long). Following a 30 minute period for equilibration, collections were taken every 1-2.5 minutes. Ecolite scintillation fluid (15 ml) was then added to each collection vial. The samples were analyzed for radioactivity (CPM) using a Packard TRI CARB 2100 TR scintillation counter (Meriden, Conn.).
Dissection Krebs Solution (mM) NaCl 125, KCl 2.5, NaHCO3 26, NaH2PO4-H2O1.25, MgCl2 6,CaCl2 1.5, glucose 2.5. Perfusion Krebs Solution (mM) NaCl 125, KCl 2.5, NaHCO3 26, NaH2PO4—H2O 1.25, MgCl2 1,CaCl2 2, glucose 2.5.
After incubation with ^3H-norepinephrine, the cord slices were perfused with buffer for 30 minutes at 0.5 ml/minute. After equilibration, samples containing released ^3H-norepinephrine were collected at 2.5 minute intervals. After determination of baseline release, the slices were stimulated with 1 mM nicotine in the perfusion buffer.
In test [4] the target is T1, human α4β2 nAChRs expressed in Xenopus oocytes (Homo sapiens, UniProt P17787+P43681).
T1 construct: expressed in transfected cells; host or cells: Xenopus laevis oocytes injected with cRNA (1:1 α4 to β2)
Nature of the test: Two-microelectrode voltage clamp of ACh-activated currents in Xenopus oocytes. It is filed as cell-based. The procedure:
The human α4 and β2 type nAChRs were in a pSP64 expression vector. Standard techniques were used to linearize the vectors and use them as templates to make cRNA using SP6 as the polymerase. The human nicotinic clones were a gift from Dr. Jon Lindstrom, Ph.D. (Department of Neuroscience, University of Pennsylvania, Philadelphia, Pa.).
Xenopus laevis oocytes were removed from the females and defolliculated with collagenase. After the oocytes rested for 24 hours in L-15 oocyte medium, about 10 ng of a 1:1 ratio of α4 to β2 cRNA were injected into individual oocytes. A manual injector was used for this process (Nanoject; Drummond Scientific, Broomall, Pa.). The oocytes were incubated for 2-5 days in ND-96 medium (NaCl 96 mM, KCl 2 mM, MgCl2 1 mM, CaCl2 H2O 1.8 mM, HEPES 5 mM, Na-pyruvate 2.5 mM, theophylline 0.5 mM, and 10mg/L of gentamicin, adjusted to pH 7.5).
Whole oocytes were used to record currents using a Gene-Clamp 500 two-microelectrode voltage-clamp amplifier with an active ground (Axon Instruments, Inc., Foster, Cailf.). The recording electrodes were pulled from glass capillary tubing (Drummond, Broomall, Pa.) to obtain a resistance between 1 and 5 MΩ and filled with 3M KCl. Ba^2 Ringer's solution was used as the extracellular solution in order to avoid current amplification by calcium activated chloride currents (115 mM NaCl, 2.5 mM KCl, 1.8 mM BaCl2, 10 mM HEPES, 1 μM atropine, pH 7.4). Atropine was included to avoid activation of intrinsic muscarinic receptors. Experiments were performed at room temperature. Isoflurane was prepared from a saturated solution by serial dilution. Concentrations were verified by gas chromatography.
Oocytes were tested at a membrane potential of −60 mV. Bolus application of the agonist +/− indicated antagonist(s) was applied at a rate of 4 ml/min for a 2 second application.
Antagonists were pre-applied for 2 minutes prior to activation. Concentration response curves were made from the percent change in peak current from ACh activation in the presence of antagonist(s), compared to ACh alone. As the ACh concentration at central neuronal nAChRs is unknown, 1 mM ACh (saturating) was used to detect inhibition by isoflurane and mecamylamine experiments with mecamylamine. ACh 2 μM was used to detect potentiation by nicotine. Currents were measured in 5-8 cells for each data point. Clampex 7 (Axon instruments, Foster City, Calif.) was used for data acquisition.
Microcal Origins 5.0 (Microcal, Northampton, Mass.) was used for statistical calculations and graphical presentation. The in vitro data were fit to a modified Hill equation, y=100/(1+(x/IC50)^n), where IC50 is the concentration of drug at which of 50% of the response is inhibited and n is the Hill coefficient.

In a further test the test system is female mice. Briefly: MAC and LORR of isoflurane. It is filed as in vivo. From the text:
Isoflurane causes hyperalgesia in female mice. […] Increased HPWL occurred at concentrations above 0.86% that were associated with sedation. MAC in these animals was 1.5±0.1% and LORR (mean partial pressures bracketing postural response and lack of response to placing the animal in a supine position) occurred at 0.59 +0.2% isoflurane.
5-28 mice were studied per group.

For the next test, the system named is mice. From the text: Nicotinic acetylcholine receptors are involved in the mechanism of isoflurane hyperalgesia, and nicotinic inhibition could be the initiating event.
How could nicotinic inhibition cause hyperalgesia? Nicotine is thought to exert its analgesic action by increasing the release of norepinephrine, serotonin and acetylcholine onto the relay neurons in the dorsal horn of the spinal cord (Rao, 1996; and Reuter, 2000). Isoflurane might reduce pain threshold by inhibiting nicotinic acetylcholine receptors tonically active in potentiating the release of norepinephrine, serotonin and/or acetylcholine. To test the role of the α-adrenergic system, mice were treated systemically with the adrenergic neurotoxin DSP-4 to deplete norepinephrine levels (Jonsson, 1981). The DSP-4 mice 14 days after treatment were tested for HPWL in the presence of isoflurane alone or isoflurane with nicotine pretreatment (see methods).
To test the role of muscarinic receptors for acetylcholine, mice were treated with the nonspecific muscarinic antagonist, atropine. A cholinergic neurotoxin could not be used for these studies, because removing all cholinergic neurons would have nicotinic in addition to muscarinic effects. Instead, postsynaptic muscarinic blockade was used. ACh causes analgesia, at least in part due to muscarinic stimulation (Chiari, 1999; Smith, 1989; and Lavand'homme, 1999). […] High concentrations of atropine can block nicotinic acetylcholine receptors as well (Zwart, 1997).

T1 sequence (P43681 29-627 limits assumed): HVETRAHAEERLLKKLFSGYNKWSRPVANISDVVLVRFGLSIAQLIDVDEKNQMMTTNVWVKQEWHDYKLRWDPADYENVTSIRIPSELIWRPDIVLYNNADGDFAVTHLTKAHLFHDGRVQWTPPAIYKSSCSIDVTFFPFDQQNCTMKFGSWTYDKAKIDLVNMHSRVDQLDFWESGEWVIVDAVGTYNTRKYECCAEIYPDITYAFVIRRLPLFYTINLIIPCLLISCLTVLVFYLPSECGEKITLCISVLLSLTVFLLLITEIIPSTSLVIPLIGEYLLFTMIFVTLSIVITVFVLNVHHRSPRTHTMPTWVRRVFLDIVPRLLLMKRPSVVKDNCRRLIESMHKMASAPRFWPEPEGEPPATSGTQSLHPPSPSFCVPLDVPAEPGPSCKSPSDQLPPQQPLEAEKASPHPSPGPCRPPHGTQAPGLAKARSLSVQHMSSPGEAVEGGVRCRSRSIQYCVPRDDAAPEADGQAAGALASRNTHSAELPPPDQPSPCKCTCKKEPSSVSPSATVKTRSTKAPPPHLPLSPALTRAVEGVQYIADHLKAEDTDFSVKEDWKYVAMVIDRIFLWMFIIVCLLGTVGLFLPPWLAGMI
T1 sequence (P17787 26-502): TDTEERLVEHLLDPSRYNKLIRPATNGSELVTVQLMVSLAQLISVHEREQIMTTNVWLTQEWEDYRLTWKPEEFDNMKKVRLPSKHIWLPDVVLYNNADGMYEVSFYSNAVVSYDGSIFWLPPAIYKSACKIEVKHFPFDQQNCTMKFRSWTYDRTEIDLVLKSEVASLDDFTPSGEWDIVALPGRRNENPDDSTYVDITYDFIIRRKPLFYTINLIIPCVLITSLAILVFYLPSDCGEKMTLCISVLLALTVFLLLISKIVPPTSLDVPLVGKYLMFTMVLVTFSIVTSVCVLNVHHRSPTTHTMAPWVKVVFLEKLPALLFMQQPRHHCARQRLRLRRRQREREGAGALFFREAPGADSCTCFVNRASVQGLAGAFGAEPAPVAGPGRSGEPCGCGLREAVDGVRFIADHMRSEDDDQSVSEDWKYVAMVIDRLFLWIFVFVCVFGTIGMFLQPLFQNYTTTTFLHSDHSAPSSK

Turning to `C[N+](C)(C)CCCCCC[N+](C)(C)C` [Hexamethonium], the “effect on the analgesic action of nicotine” value in test [1] is listed as “has no effect on the analgesic action of nicotine”.

The term IC50 denotes the point on the concentration scale where inhibition reaches its midpoint. Take `FC(F)OC(Cl)C(F)(F)F` (centres unmarked) [isoflurane]: the “hyperalgesic effect of isoflurane in β2 nicotinic knockout mice” value in test [2] is given as “clearly reduced in these animals, but not absent; also recorded: Hyperalgesia was reduced”. In the test on male and female mice (female mice two weeks after oophorectomy), the “hyperalgesic response after oophorectomy” value is “more pronounced”. Besides, the “hyperalgesic effect by estrus stage” value in the test with male and female mice (high estrogen (stages 2 and 3) and high progesterone (stage 5)) is “less hyperalgesic effect during these stages”. Further, the “hyperalgesic response in male mice” value with male and female mice (intact males) is “less than that in females”. Further, in the test on male and female mice (two weeks after castration), the “hyperalgesic response in castrated males” value is on record as “increased hyperalgesic responses to isoflurane compared to intact males”. Further, the basal norepinephrine release entry in test [3] was “basal norepinephrine release was reduced”. The “nicotine facilitated norepinephrine release” value in test [3] (1 mM nicotine) is “no facilitation by nicotine”. The “mode of antagonism at heteromeric nAChRs” value in test [4] was “non-competitive antagonists”. In addition, the half-inhibitory concentration (IC50) in test [4] (1 mM ACh, −60 mV, room temperature, read-out: IC50 for inhibition of α4β2 nAChR) stood at 44 µM. Further, the MAC with female mice (isoflurane in these mice) is 1.4% and 1.5±0.1%. Also, the LORR in the test with female mice (mean partial pressures bracketing postural response and lack of response to supine placement) is 0.59 +0.2%. For the same molecule, the “hyperalgesic effect after norepinephrine depletion” value in the test with mice (isoflurane, mice 14 days after DSP-4) is reported as “no hyperalgesic effect at any subanesthetic concentration”. In addition, the “isoflurane concentration that caused maximal hyperalgesia” value in the test with mice (mouse, in vivo) amounted to 0.38%.
